Experimental data: US10561611B2, “Combination liposomal pharmaceutical formulations” (Cureport, Inc., priority 2015, dated 2020)

Test: in vivo
Details: male, CD-1, mouse, iv
Experimental: Male CD-1 mice ranging from 20-25 g body weight were split up into groups of three. Each mouse was administered with a single dose of CPT319A or CPT307A at 5 mg/kg DXR by intravenous (IV) injection through the tail vein. A non-liposomal combination of DXR was used as the control. Blood samples were collected at 0.167, 1, 3, 8, 24, and 48 h after the injection. DXR plasma concentration was determined by liquid chromatography-tandem mass spectrometry (LC-MS-MS).

**Q.** Which AUC does the source give for `COc1cccc2c1C(=O)c1c(O)c3c(c(O)c1C2=O)C[C@@](O)(C(=O)CO)C[C@@H]3O[C@H]1C[C@H](N)[C@H](O)[C@H](C)O1` [Naked DXR, doxorubicin] here?
**A.** The AUC was 688 ng·h/mL.

**Q.** What about the AUC (5 mg/kg) of the same compound?
**A.** The AUC was 688 ng·h/mL.
